Experiments:
[1] = Plasma protein binding rate test, human plasma; format: in vitro ADME; conditions: 37° C.
Procedure: (§1) The embodiment compound was prepared into a 1 mM solution A with DMSO.
(§2) Solution A was added to the plasma solution and prepared into a 5 μM solution B.
(§3) • 1) 200 μL of solution B was added into the membrane. • 2) 350 μL of PBS was added to the outside of the membrane. • 3) Incubating in a 37° C. water bath for 6 hours. • 4) The samples were processed for dilution and detected by mass spectrometry.
(§4) • instrument: Shimadzu LC-20 AD; • chromatographic column: phenomenex Gemiu® C18 (50*4.6 mm, 5 UM particle size); • mobile phase: A: Acetonitrile, B: 0.1% formic acid solution 0-0.5 min: 5% A→90% A, 2.0-2.1 min: 90% A→5% A; flow rate: 0.8 mL/min; running time: 5.0 min; injection volume: 5 μL.
(§5) • instrument: API4000 Liquid Chromatography-Mass Spectrometry, AB, USA; • the ion source was electrospray ionization source (ESI); • the temperature of dry gas (N2) was 500° C.; • electrospray voltage was 5500V; • the detection method was positive ion detection; • the scanning mode was selective response monitoring (MRM); the scanning time was 0.1 s.

[2] = system: plasma protein; experiment: Plasma protein binding rate test, human plasma; format: in vitro ADME; conditions: 5 μM, 37° C., 6 hours
Procedure: as §1, §2, §3, §4, §5

[3] = system: plasma protein; experiment: Plasma protein binding rate test, mouse plasma; format: in vitro ADME; conditions: 5 μM, 37° C., 6 hours
Procedure: as §1, §2, §3, §4, §5

[4] = system: phosphorylated ERK in Mia PaCa-2 cells; experiment: Inhibition of phosphorylated ERK in Mia PaCa-2 cells (LANCE Ultra); format: cell-based, human; conditions: 2 hours treatment; read-out: Mia PaCa-2 pERK IC50
Procedure: When Mia PaCa-2 cells were cultured to the appropriate fusion level, Mia PaCa-2 cells were collected, and the cell density was adjusted to 1×10^6/mL using complete culture medium, the cell suspension was spread on a 96-well plate, 50 μL per well, and placed adherent to the wall in a 37° C., 5% CO2 incubator overnight, compound solutions with different concentrations were prepared using DMSO and complete culture medium, a solvent control was set, the compound solution was added to a 96-well plate, 25 μL per well, and placed in a 37° C., 5% CO2 incubator for 2 hours of continuous culture, the supernatant was discarded from the cell culture plate, 50 μL of lysis solution was added to each well, and lysing was performed for 30 minutes by shaking at room temperature, then the mixture was centrifuged at 1000 rpm for 1 minute, 15 μL of supernatant was transferred to 384 well plate, 5 μL of detection mixture (Eu-labeled anti-ERK1/2 (T202-Y204) antibody with final concentration of 0.5 nM and ULight labeled anti-ERK1/2 antibody with final concentration of 5 nM) was added to each well, centrifuged at 1000 rpm for 1 minute and mixed uniformly, the reaction was carried out overnight at room temperature, the plate was read with BioTek Synergy H1, and the signal values was detected at 620 nm and 665 nm emission wavelengths by time-resolved fluorescence program. […]

[5] = system: NCI-H358 cells (KRAS G12C mutant); experiment: Inhibition of NCI-H358 cell proliferation (CellTiter-Glo, 72 h); format: cell-based, human
Procedure: (§6) When NCI-H358 or Mia PaCa-2 cells were cultured to the appropriate fusion level, the NCI-H358 or Mia PaCa-2 cells were collected, and the cells were adjusted to the appropriate cell concentration using a complete medium, and the cell suspension was spread in a 96-well plate, 90 μL per well, and placed in a 37° C., 5% CO2 incubator overnight; and compound solutions of different concentrations were prepared using DMSO and culture medium; and a solvent control was set, the compound solution was added to a 96-well plate, 10 μL per well, at 37° C. in a 5% CO2 incubator for 72 hours; CellTiter-Glo solution was added thereto and the mixture was mixed well by shaking, incubated for 10 min in the dark, and read by BioTek Synergy H1 microplate reader.
(§7) The luminescence signal values were used to calculate the inhibition rate, the concentration and the inhibition rate were fitted to a nonlinear regression curve using Graphpad Prism software, then the IC50 value was obtained.

[6] = system: Mia PaCa-2 cells (KRAS G12C mutant); experiment: Inhibition of Mia PaCa-2 cell proliferation (CellTiter-Glo, 72 h); format: cell-based, human
Procedure: as §6, §7

[7] = system: plasma protein; experiment: Plasma protein binding rate test, dog plasma; format: in vitro ADME; conditions: 5 μM, 37° C., 6 hours
Procedure: as §1, §2, §3, §4, §5

[8] = system: human pancreatic cancer cell MiaPaca 2 xenograft (CDX); experiment: Tumor inhibition on MiaPaca 2 transplanted tumor model; format: in vivo, BALB/c nude mice; conditions: oral 6 mg/kg QD×3w
Procedure: MiaPaca 2 cells were removed from the cell bank, revived and added to DMEM medium (containing 10% FBS, 1% Glu, 1% P/S) and incubated in a CO2 incubator (incubator temperature was 37° C., CO2 concentration was 5%). After the cells were spread to 80-90% of the bottom of the culture flask, the cells were continued to be cultured in the CO2 incubator. The process was repeated until the number of cells met the in vivo pharmacological inoculation requirement, and the cells in logarithmic growth period were collected and counted with an automatic cell counter, resuspended with PBS and Matrigel (volume ratio 1:1) according to the count results, made into a cell suspension (the density was 8×10^7/mL), and placed in an ice box for use.
BALB/c nude mice, female, 6-8 weeks old, weighing about 18-22 g. The mice were kept in an environment free of special pathogens and in a single ventilated cage with 5 mice in each cage. […] Nude mice were labeled with disposable universal ear tags for mice and rats before the start of the experiment, and the skin of the inoculation site was disinfected with 75% medical alcohol before inoculation, 0.1 mL (containing 8*10^6 cells) of MiaPaca 2 tumor cells were inoculated subcutaneously on the right back of each mouse. When the tumor volume reached 100-200 mm^3, the group administration was started.
The tumor volume (mm^3) was measured with vernier caliper twice a week, the calculation formula was V=[…], wherein D and d were the long and short diameter of the tumor, respectively. The anti-tumor efficacy was determined by dividing the average tumor increased volume of the compound-treated animals by the average tumor increased volume of the untreated animals. The formula of tumor inhibition rate is: TGI (%)=1−[(Vt−V0) administration group/(Vt−V0) solvent control group]*100%. After the experiment, all animals were euthanized.

Compound | fraction unbound at 6 h, 5 μM [1] | Plasma protein binding rate, Human [2] | Plasma protein binding rate, Mouse [3] | IC50 [4] [nM] | IC50 [5] [nM] | IC50 [6] [nM] | Plasma protein binding rate, Dog [7] | Tumor volume (mm^3, Mean ± SD) Day 0 ([8]; Day 0) [mm^3] | TGI (%) Day 21 ([8]; Day 21) [%] | Tumor volume (mm^3, Mean ± SD) Day 21 ([8]; Day 21) [mm^3] | ΔT/ΔC (%) Day 21 ([8]; Day 21) [%]
C=CC(=O)N1C[C@H](C)N(c2nc(=O)n(-c3c(SC)ccnc3C(C)C)c3nc(-c4c(N)ccc(Cl)c4F)c(Cl)cc23)C[C@H]1C (atropisomer, axis not shown) [Embodiment 13-1, P-4-((2S,5R)-4-Acryloyl-2,5-dimethylpiperazin-1-yl)-7-(6-amino-3-chloro-2-fluorophenyl)-6-chloro-1-(2-isopropyl-4-(methylthio)pyridin-3-yl)pyrido[2,3-d]pyrimidin-2(1H)-one] | 0.003 |  |  |  |  |  |  |  |  |  | 
P-4-((2S,5R)-4-acryloyl-2,5-dimethylpiperazin-1-yl)-6-fluoro-7-(2-fluoro-6-hydroxyphenyl)-1-(2-isopropyl-4-(methylthio)pyridin-3-yl)pyrido[2,3-d]pyrimidin-2(1H)-one [Embodiment 2-1] |  | 98.0 | 88.4 | 38 | 35 | 29 | 82.6 | 177 ± 38 | 162.36 | 67 ± 34 | −62.36

Reference: US20240325394A1, “SALT AND CRYSTAL FORM OF NITROGEN-CONTAINING HETEROCYCLIC DERIVATIVE, PREPARATION METHOD THEREFOR AND APPLICATION THEREOF” (SHANGHAI HANSOH BIOMEDICAL CO., LTD., priority 2020, published 2024)
